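Protocol summary: plate cells (96-well), add compound at 5 concentrations, incubate 48 h, interpolate endpoints linearly. The concentration for full growth arrest is given as TGI.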
Tests used:
Assay in all cases: NCI anticancer screen, dose series, 48 h
786-0 renal = system: 786-0 renal
A498 renal = system: A498 renal
A549 NSCLC = system: A549 NSCLC
ACHN renal = system: ACHN renal
BT-549 breast = system: BT-549 breast
CAKI-1 renal = system: CAKI-1 renal
CCRF-CEM leukemia = system: CCRF-CEM leukemia
COLO 205 colon = system: COLO 205 colon
DU-145 prostate = system: DU-145 prostate
EKVX NSCLC = system: EKVX NSCLC
HCC-2998 colon = system: HCC-2998 colon
HCT-116 colon = system: HCT-116 colon
HCT-15 colon = system: HCT-15 colon
HL-60(TB) leukemia = system: HL-60(TB) leukemia
HOP-62 NSCLC = system: HOP-62 NSCLC
HOP-92 NSCLC = system: HOP-92 NSCLC
HS 578T breast = system: HS 578T breast
HT29 colon = system: HT29 colon
IGROV1 ovarian = system: IGROV1 ovarian
K-562 leukemia = system: K-562 leukemia
KM12 colon = system: KM12 colon
M14 melanoma = system: M14 melanoma
MALME-3M melanoma = system: MALME-3M melanoma
MDA-MB-231 breast = system: MDA-MB-231 breast
MDA-MB-435 = system: MDA-MB-435
MOLT-4 leukemia = system: MOLT-4 leukemia
NCI-H23 lung = system: NCI-H23 lung
NCI-H460 lung = system: NCI-H460 lung
NCI-H522 lung = system: NCI-H522 lung
NCI/ADR-RES ovarian = system: NCI/ADR-RES ovarian
OVCAR-3 ovarian = system: OVCAR-3 ovarian
OVCAR-4 ovarian = system: OVCAR-4 ovarian
OVCAR-5 ovarian = system: OVCAR-5 ovarian
PC-3 prostate = system: PC-3 prostate
RPMI-8226 leukemia = system: RPMI-8226 leukemia
RXF 393 renal = system: RXF 393 renal
SF-295 CNS = system: SF-295 CNS
SF-539 CNS = system: SF-539 CNS
SK-MEL-2 melanoma = system: SK-MEL-2 melanoma
SK-MEL-28 melanoma = system: SK-MEL-28 melanoma
SK-MEL-5 melanoma = system: SK-MEL-5 melanoma
SN12C renal = system: SN12C renal
SW-620 colon = system: SW-620 colon
T-47D breast = system: T-47D breast
TK-10 renal = system: TK-10 renal
UACC-257 melanoma = system: UACC-257 melanoma
UACC-62 melanoma = system: UACC-62 melanoma
UO-31 renal = system: UO-31 renal

**Q.** What does the source list for `NC(N)=N/N=C\c1c(-c2cccc([N+](=O)[O-])c2)nc2sccn12`?
**A.** TGI (786-0 renal): > 100 µM; TGI (A498 renal): 64.1 µM; TGI (A549 NSCLC): 51.6 µM; TGI (ACHN renal): 5.68 µM; TGI (BT-549 breast): 4.06 µM; TGI (CAKI-1 renal): 45.3 µM; TGI (CCRF-CEM leukemia): > 100 µM; TGI (COLO 205 colon): 14.5 µM; TGI (DU-145 prostate): 20.8 µM; TGI (EKVX NSCLC): 56.2 µM; TGI (HCC-2998 colon): 5.38 µM; TGI (HCT-116 colon): > 100 µM; TGI (HCT-15 colon): > 100 µM; TGI (HL-60(TB) leukemia): > 100 µM; TGI (HOP-62 NSCLC): > 100 µM; TGI (HOP-92 NSCLC): 27.6 µM; TGI (HS 578T breast): 38.1 µM; TGI (HT29 colon): 4.23 µM; TGI (IGROV1 ovarian): 33.6 µM; TGI (K-562 leukemia): > 100 µM; TGI (KM12 colon): 3.66 µM; TGI (M14 melanoma): 5.93 µM; TGI (MALME-3M melanoma): 51.4 µM; TGI (MDA-MB-231 breast): 5.01 µM; TGI (MDA-MB-435): 5.16 µM; TGI (MOLT-4 leukemia): 5 µM; TGI (NCI-H23 lung): 32.1 µM; TGI (NCI-H460 lung): 78.7 µM; TGI (NCI-H522 lung): 14.2 µM; TGI (NCI/ADR-RES ovarian): > 100 µM; TGI (OVCAR-3 ovarian): 6.29 µM; TGI (OVCAR-4 ovarian): 3.78 µM; TGI (OVCAR-5 ovarian): > 100 µM; TGI (PC-3 prostate): 29 µM; TGI (RPMI-8226 leukemia): > 100 µM; TGI (RXF 393 renal): 5.8 µM; TGI (SF-295 CNS): 5.86 µM; TGI (SF-539 CNS): 54.9 µM; TGI (SK-MEL-2 melanoma): 6.49 µM; TGI (SK-MEL-28 melanoma): 4.37 µM; TGI (SK-MEL-5 melanoma): 36.1 µM; TGI (SN12C renal): 4.89 µM; TGI (SW-620 colon): 5.43 µM; TGI (T-47D breast): 4.18 µM; TGI (TK-10 renal): 4.53 µM; TGI (UACC-257 melanoma): 48.8 µM; TGI (UACC-62 melanoma): 79 µM; TGI (UO-31 renal): 37.7 µM
